Data on 28 compounds can be found in patent US7501412B2, “Isoquinoline compounds and medicinal use thereof” (Mitsubishi Tanabe Pharma Corporation, priority 2002, dated 2009).

Counter-ions that a name gives are not always drawn.

The target of one data set is T1, recombinant human PARP (Homo sapiens, UniProt P09874).
T1 construct: purchased Trevigen 4667-02X
T1 sequence (P09874 whole entry): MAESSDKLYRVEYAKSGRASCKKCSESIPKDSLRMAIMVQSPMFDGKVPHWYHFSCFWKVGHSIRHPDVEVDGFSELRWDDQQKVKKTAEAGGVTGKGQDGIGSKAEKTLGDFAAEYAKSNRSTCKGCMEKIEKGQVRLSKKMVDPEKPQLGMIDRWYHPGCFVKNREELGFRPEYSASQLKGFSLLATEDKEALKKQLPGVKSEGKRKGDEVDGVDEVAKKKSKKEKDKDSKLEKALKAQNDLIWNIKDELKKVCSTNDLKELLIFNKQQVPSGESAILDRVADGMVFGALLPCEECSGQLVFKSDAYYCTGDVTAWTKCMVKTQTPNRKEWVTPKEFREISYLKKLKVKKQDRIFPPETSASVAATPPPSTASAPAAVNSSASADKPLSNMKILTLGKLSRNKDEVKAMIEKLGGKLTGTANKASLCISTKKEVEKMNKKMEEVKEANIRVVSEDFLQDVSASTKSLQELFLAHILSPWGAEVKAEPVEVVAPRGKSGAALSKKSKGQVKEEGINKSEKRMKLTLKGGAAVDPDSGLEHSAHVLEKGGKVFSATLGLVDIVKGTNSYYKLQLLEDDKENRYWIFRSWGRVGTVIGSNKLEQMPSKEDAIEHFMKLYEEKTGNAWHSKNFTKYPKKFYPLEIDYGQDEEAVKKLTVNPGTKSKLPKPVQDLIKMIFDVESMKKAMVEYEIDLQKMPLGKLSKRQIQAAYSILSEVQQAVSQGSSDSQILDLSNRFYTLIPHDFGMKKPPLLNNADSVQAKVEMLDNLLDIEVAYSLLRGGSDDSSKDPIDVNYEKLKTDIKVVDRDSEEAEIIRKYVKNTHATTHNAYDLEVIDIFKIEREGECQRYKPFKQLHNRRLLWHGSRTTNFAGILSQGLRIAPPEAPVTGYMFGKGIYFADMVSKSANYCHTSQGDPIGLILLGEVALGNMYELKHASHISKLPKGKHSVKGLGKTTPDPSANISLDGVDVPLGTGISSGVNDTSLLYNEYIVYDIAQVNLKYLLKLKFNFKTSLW
Briefly: PARP enzyme activity inhibitory action. Type of data set: biochemical. Particulars: recombinant human PARP (Trevigen), 3H-NAD, activated DNA, 25° C. for 15 min. On the procedure: After incubation at 25° C. for 15 min., the reaction was stopped by adding 20% trichloroacetic acid, and the resulting acid insoluble fraction was adsorbed to a GF/B filter. Then, the filter was washed several times with 5% trichloroacetic acid, and the radioactivity on the filter was measured with a liquid scintillation counter.
For the compound `O=C1NCCc2c(OCCCCN3CCCCC3)cccc21` [DPQ, 3,4-dihydro-5-[4-(1-piperidinyl)-butoxy]-1(2H)-isoquinolinone, reference compound], the 50% inhibitory concentration (IC50) worked out at 1000 nM.

`CN(C)CC(=O)c1c(N)[nH]c(=O)c2ccccc12` [Ex. 1, 3-amino-4-(2-(dimethylamino)acetyl)-2H-isoquinolin-1-one hydrochloride monohydrate]: the IC50 is 43 nM.

For `Cn1nc(CN2CCCC2)c2c3ccccc3c(=O)[nH]c21` [Ex. 7, 3-methyl-1-(pyrrolidin-1-yl)methyl-3H-pyrazolo[3,4-c]isoquinolin-5(4H)-one], the IC50 was determined as 32 nM.

Consider `CN(C)CC(=O)c1c(N)[nH]c(=O)c2cc(F)ccc12` [Ex. 14, 3-Amino-4-(2-(dimethylamino)acetyl)-7-fluoro-2H-isoquinolin-1-one hydrochloride], for which the IC50 was determined as 40 nM.

Take `CN1CCN(Cc2nn(C)c3[nH]c(=O)c4ccccc4c23)CC1` [Ex. 21, 3-Methyl-1-((4-methylpiperazin-1-yl)methyl)-3H-pyrazolo[3,4-c]isoquinolin-5(4H)-one]: the IC50 was found to be 143 nM.

In the case of `Cc1[nH]c(=O)c2ccccc2c1CN1CCCC1` [Ex. 25, 3-Methyl-4-(pyrrolidin-1-yl)methyl-2H-isoquinolin-1-one], the concentration for half-maximal inhibition (IC50) turned out to be 67 nM.

Regarding `Cc1[nH]c(=O)c2cc(Cl)ccc2c1CN1CCCC1` [Ex. 27, 7-chloro-3-methyl-4-((pyrrolidin-1-yl)methyl)-2H-isoquinolin-1-one], the IC50 was determined as 39 nM.

For the compound `Cc1[nH]c(=O)c2cc(F)ccc2c1CN1CCCC1` [Ex. 28, 7-Fluoro-3-methyl-4-((pyrrolidin-1-yl)methyl)-2H-isoquinolin-1-one], the half-maximal inhibitory concentration (IC50) is 45 nM.

As for `O=c1[nH]cc(C2CCNCC2)c2ccccc12` [Ex. 31, 4-(piperidin-4-yl)-2H-isoquinolin-1-one hydrochloride], the IC50 was determined as 31 nM.

Turning to `O=c1[nH]cc(C2CCN(CCO)CC2)c2ccccc12` [Ex. 32, 4-(1-(2-hydroxyethyl)piperidin-4-yl)-2H-isoquinolin-1-one], the half-maximal inhibitory concentration (IC50) came to 34 nM.

As for `CN1CCC(c2c[nH]c(=O)c3ccccc23)CC1` [Ex. 33, 4-(1-methylpiperidin-4-yl)-2H-isoquinolin-1-one], the half-maximal inhibitory concentration (IC50) is 40 nM.

Take `O=c1[nH]cc(C2CCNCC2)c2ccc(Cl)cc12` [Ex. 44, 7-Chloro-4-(piperidin-4-yl)-2H-isoquinolin-1-one hydrochloride]: the concentration for half-maximal inhibition (IC50) came to 22 nM.

As to `O=c1[nH]cc(C2CCNCC2)c2ccc(F)cc12` [Ex. 45, 7-Fluoro-4-(piperidin-4-yl)-2H-isoquinolin-1-one hydrochloride], the concentration for half-maximal inhibition (IC50) came to 22 nM.

As for `CN1CCC(c2c[nH]c(=O)c3cc(Cl)ccc23)CC1` [Ex. 46, 7-Chloro-4-(1-methylpiperidin-4-yl)-2H-isoquinolin-1-one], the concentration for half-maximal inhibition (IC50) amounted to 37 nM.

Take `CN1CCC(c2c[nH]c(=O)c3cc(F)ccc23)CC1` [Ex. 47, 7-Fluoro-4-(1-methylpiperidin-4-yl)-2H-isoquinolin-1-one hydrochloride]: the IC50 was found to be 23 nM.

On to `O=c1[nH]cc(C2CCN(CCO)CC2)c2ccc(F)cc12` [Ex. 48, 7-Fluoro-4-(1-(2-hydroxyethyl)piperidin-4-yl)-2H-isoquinolin-1-one hydrochloride], for which the IC50 was 24 nM.

For the compound `CN1CCC(c2nn(C)c3[nH]c(=O)c4ccccc4c23)CC1` [Ex. 209, 1-(1-methylpiperidin-4-yl)-3-methyl-pyrazolo[3,4-c]isoquinolin-5(4H)-one], the IC50 was determined as 43 nM.

Regarding `CCN1CCC(c2nn(C)c3[nH]c(=O)c4ccccc4c23)CC1` [Ex. 210, 1-(1-Ethylpiperidin-4-yl)-3-methyl-pyrazolo[3,4-c]isoquinolin-5(4H)-one], the IC50 was found to be 25 nM.

For the compound `CCN1CCC(c2c[nH]c(=O)c3cc(F)ccc23)CC1` [Ex. 212, 7-Fluoro-4-(1-ethylpiperidin-4-yl)-2H-isoquinolin-1-one], the half-inhibitory concentration (IC50) stood at 47 nM.

Take `Cn1nc(C2CCNCC2)c2c3ccc(F)cc3c(=O)[nH]c21` [Ex. 221, 7-Fluoro-1-(piperidin-4-yl)-3-methyl-pyrazolo[3,4-c]isoquinolin-5(4H)-one hydrochloride]: the IC50 turned out to be 30 nM.

Turning to `CN1CCC(c2nn(C)c3[nH]c(=O)c4cc(F)ccc4c23)CC1` [Ex. 222, 7-Fluoro-1-(1-methylpiperidin-4-yl)-3-methyl-pyrazolo[3,4-c]isoquinolin-5(4H)-one], the IC50 stood at 44 nM.

Regarding `CCN1CCC(c2nn(C)c3[nH]c(=O)c4cc(F)ccc4c23)CC1` [Ex. 223, 1-(1-Ethylpiperidin-4-yl)-7-fluoro-3-methyl-pyrazolo[3,4-c]isoquinolin-5(4H)-one], the half-inhibitory concentration (IC50) came to 30 nM.

Regarding `CCCN1CCC(c2nn(C)c3[nH]c(=O)c4cc(F)ccc4c23)CC1` [Ex. 225, 7-Fluoro-1-(1-propylpiperidin-4-yl)-3-methyl-pyrazolo[3,4-c]isoquinolin-5(4H)-one], the IC50 was found to be 42 nM.

Take `CCCN1CCC(c2nn(C)c3[nH]c(=O)c4ccccc4c23)CC1` [Ex. 226, 1-(1-Propylpiperidin-4-yl)-3-methyl-pyrazolo[3,4-c]isoquinolin-5(4H)-one]: the half-maximal inhibitory concentration (IC50) was determined as 47 nM.

System in another data set: not given
Assay: not given
Details: not given
`CN1CCC(c2c[nH]c(=O)c3c(F)cccc23)CC1` displayed a melting point of 227.6 to 229.3 °C.

Turning to `Cc1ccc2c(C3CCN(C)CC3)c[nH]c(=O)c2c1`, the melting point was in the range of 212.8 to 214.8 °C.

In turn, `CN1CCC(c2c[nH]c(=O)c3cc(C(F)(F)F)ccc23)CC1` (as salt: hydrochloride) [Example 198, 4-(1-Methylpiperidin-4-yl)-7-trifluoromethyl-2H-isoquinolin-1-one] had a melting point of 231.8 to 234.6 °C.

Compound `COc1ccc2c(C3CCN(C)CC3)c[nH]c(=O)c2c1` [Example 201, 7-Methoxy-4-(1-methylpiperidin-4-yl)-2H-isoquinolin-1-one] returned a melting point of 224.9 to 226.2 °C.
